Some test systems named below: NCI/ADR-RES; SF-268; NCI-H522; IGROV-1; SN12C; MCF7; UACC-62; HOP-62; SK-MEL-28; SK-OV-3; PC-3; MDA-MB-435; Hs-578T; COLO 205; DU-145; RXF 393; MOLT-4; SNB-75; K562; OVCAR-3.
Common to all, as to experiment: NCI tumour cell line growth inhibition, 48 h

The values that follow come from ChEMBL document CHEMBL1201862, “PubChem BioAssay data set” (2004).

Each structure is given as a SMILES string.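 Values below derive from 48-hour exposures of cells grown in 96-well plates, with endpoints linearly interpolated between the two concentrations bracketing the appropriate inhibition level. The concentration for 50% growth inhibition is given as GI50.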 The source made the active and inactive calls. Rule as the data show it: active = GI50 up to about 1.1 µM and inactive = higher. A value given as a limit tells only on which side of the number the result lay.

As for `N#CC12C(=O)N=C(N)C1(C#N)C(c1ccco1)NC1=C2CCCC1` (configuration not stated), the GI50 with NCI/ADR-RES was > 100 µM (inactive); with SF-268, > 100 µM (inactive); with NCI-H522 it was > 100 µM (inactive); in the assay on IGROV-1, > 100 µM (inactive); in the assay with SN12C, > 100 µM (inactive); with MCF7 it was 75 µM (inactive). Moreover, the GI50 in the assay on UACC-62, in the assay with HOP-62, in the assay on SK-MEL-28, with SK-OV-3, in the assay with PC-3 and in the assay with MDA-MB-435 was > 100 µM (inactive) each time. For the same molecule, the GI50 with Hs-578T, in the assay on COLO 205, in the assay with DU-145, with RXF 393 and with MOLT-4 was > 100 µM (inactive) throughout.
In the case of `BrCC(Br)(c1ccccc1)c1ccccc1-c1cc(-c2ccccc2)cc(-c2ccccc2)n1` (configuration not stated), the GI50 is 33.9 µM (inactive) in the assay on NCI/ADR-RES; 2.36 µM (inactive) with SF-268; 2.33 µM (inactive) with NCI-H522; 3.2 µM (inactive) with IGROV-1; 12.3 µM (inactive) in the assay on SN12C; 1.09 µM (active) with MCF7. The GI50 in the assay on HOP-62 was 3.55 µM (inactive); in the assay on SK-MEL-28, 4.46 µM (inactive); in the assay on PC-3, 2.59 µM (inactive); with SNB-75, 1.27 µM (inactive); with MDA-MB-435, 1.84 µM (inactive); with Hs-578T it was 4.52 µM (inactive). Besides, the GI50 in the assay on COLO 205 was 1.43 µM (inactive); in the assay with DU-145, 4.12 µM (inactive); with RXF 393, 2 µM (inactive); in the assay with MOLT-4, 3.26 µM (inactive); with K562 it was 0.893 µM (active).
As for `CC(=O)C1=C(C)N(c2ccc(C)cc2)C2(O)C=CC(=O)C3C(=O)N(c4ccccc4)C(=O)C132` (configuration not stated), the GI50 in the assay on NCI/ADR-RES is 54.2 µM (inactive); with SF-268 it was 31 µM (inactive); in the assay with NCI-H522, 7.89 µM (inactive); in the assay on IGROV-1, 8.43 µM (inactive); with SN12C, 15.5 µM (inactive); in the assay on MCF7 it was 8.3 µM (inactive). The GI50 in the assay with UACC-62 is 16.7 µM (inactive); with HOP-62, 25.9 µM (inactive); in the assay with SK-MEL-28, 19.5 µM (inactive); in the assay on PC-3, 22.1 µM (inactive); in the assay with SNB-75, 24.4 µM (inactive); in the assay with OVCAR-3 it was 22.3 µM (inactive). Also, the GI50 was 36.3 µM (inactive) in the assay on MDA-MB-435; 29.7 µM (inactive) with Hs-578T; 23.3 µM (inactive) in the assay with COLO 205; 23.4 µM (inactive) with DU-145; 20.3 µM (inactive) in the assay with RXF 393; 3.42 µM (inactive) in the assay with K562.
Regarding `CN1CCN(C(=S)N2CCN(C)CC2)CC1`, the GI50 with NCI/ADR-RES was 25.3 µM (inactive); with SF-268 it was > 100 µM (inactive); in the assay on NCI-H522, 0.966 µM (active); in the assay on IGROV-1, > 84.3 µM (inactive); in the assay with SN12C it was > 100 µM (inactive); in the assay on MCF7, 1.08 µM (active). The GI50 with UACC-62 is 4.85 µM (inactive); with HOP-62, > 100 µM (inactive); with SK-MEL-28, > 100 µM (inactive); in the assay with SK-OV-3, > 30.1 µM (inactive); in the assay with PC-3, > 29.8 µM (inactive); in the assay on MDA-MB-435, > 100 µM (inactive). The GI50 is > 100 µM (inactive) with Hs-578T; 1.37 µM (inactive) with COLO 205; > 100 µM (inactive) in the assay on DU-145; > 100 µM (inactive) with RXF 393; 7.98 µM (inactive) with K562.
As for `COC1=C(OC)C(=O)C(Cc2c(C)nc3sc(C)cn23)=C(C)C1=O`, the GI50 in the assay on NCI/ADR-RES was 15.9 µM (inactive); with SF-268 it was 17.7 µM (inactive); in the assay on NCI-H522 it was 17.4 µM (inactive); with IGROV-1, 17.4 µM (inactive); with SN12C, 16.9 µM (inactive); in the assay on MCF7, 20.5 µM (inactive). The GI50 in the assay with UACC-62 is 14 µM (inactive); in the assay on HOP-62, 18.5 µM (inactive); in the assay on SK-MEL-28 it was 16.1 µM (inactive); with SK-OV-3 it was 22 µM (inactive); in the assay on PC-3 it was 23.4 µM (inactive); with OVCAR-3, 17.5 µM (inactive). Besides, the GI50 in the assay on MDA-MB-435 was 17.9 µM (inactive); in the assay on Hs-578T it was 23.9 µM (inactive); in the assay with COLO 205, 19.3 µM (inactive); in the assay with DU-145, 20.2 µM (inactive); with RXF 393, 20.9 µM (inactive); in the assay with MOLT-4, 1.7 µM (inactive). In addition, the GI50 with K562 is 16.9 µM (inactive).
For the molecule `O=C1C(=C(C(=O)c2ccccc2)C(=O)c2ccccc2)OC(c2ccccc2)=C1C(=O)c1ccccc1`, the GI50 in the assay with NCI/ADR-RES was 5.2 µM (inactive); with SF-268, 3.8 µM (inactive); in the assay with NCI-H522, 1.22 µM (inactive); with IGROV-1 it was 0.164 µM (active); with SN12C, 3.29 µM (inactive); in the assay with MCF7, 1.85 µM (inactive). Further, the GI50 is 4.33 µM (inactive) in the assay with UACC-62; 3.03 µM (inactive) with HOP-62; 13.9 µM (inactive) in the assay with SK-MEL-28; 6.93 µM (inactive) with SK-OV-3; 13.2 µM (inactive) in the assay on PC-3; 5.86 µM (inactive) in the assay with OVCAR-3. In addition, the GI50 in the assay on MDA-MB-435 is 8.2 µM (inactive); in the assay with Hs-578T, 11.5 µM (inactive); in the assay on COLO 205, 12.8 µM (inactive); in the assay with DU-145, 9.06 µM (inactive); in the assay with RXF 393 it was 0.122 µM (active); in the assay with MOLT-4 it was 1.98 µM (inactive). In the assay with K562, the GI50 is 6.03 µM (inactive).
Regarding `N#Cc1c(N)nc2c(c1-c1ccc(Br)cc1)CSc1ccccc1-2`, the GI50 in the assay with NCI/ADR-RES is 22 µM (inactive); in the assay on SF-268, 33.1 µM (inactive); in the assay on IGROV-1, 21.9 µM (inactive); in the assay on SN12C it was 30 µM (inactive); with MCF7 it was 19.1 µM (inactive); in the assay with UACC-62, 21.4 µM (inactive). Further, the GI50 is 50.1 µM (inactive) with HOP-62; 68.7 µM (inactive) in the assay with SK-MEL-28; 29.6 µM (inactive) with SK-OV-3; 16.7 µM (inactive) in the assay on PC-3; 31.4 µM (inactive) with SNB-75; 30.4 µM (inactive) with OVCAR-3. The GI50 in the assay with MDA-MB-435 was 19.5 µM (inactive); in the assay with Hs-578T, 22.8 µM (inactive); in the assay with COLO 205, 13.3 µM (inactive); in the assay on DU-145, 96.6 µM (inactive); with RXF 393, 20.1 µM (inactive); in the assay with MOLT-4 it was 38.7 µM (inactive). For the same molecule, the GI50 in the assay with K562 is 32.1 µM (inactive).
As for `O=C(O)CCCc1ccc2ccccc2c1`, the GI50 with NCI/ADR-RES, with SF-268, with NCI-H522, with IGROV-1, with SN12C and in the assay on MCF7 was > 100 µM (inactive) each time. Also, the GI50 in the assay on UACC-62, with HOP-62, in the assay with SK-MEL-28, with SK-OV-3, with PC-3 and in the assay with OVCAR-3 was > 100 µM (inactive) in each case. Moreover, the GI50 in the assay on MDA-MB-435, with Hs-578T, with COLO 205, in the assay on DU-145, with RXF 393 and in the assay on MOLT-4 was > 100 µM (inactive) throughout. In the assay with K562, the GI50 is > 100 µM (inactive).
On to `CC(=O)OCC1OC(n2c3c(c(-c4ccc(C)cc4)c(C#N)c2=S)C(=O)CC(C)(C)C3)C(OC(C)=O)C(OC(C)=O)C1OC(C)=O` (configuration not stated), for which the GI50 was 57.4 µM (inactive) in the assay on NCI/ADR-RES; 28.6 µM (inactive) in the assay on SF-268; 30.8 µM (inactive) in the assay on NCI-H522; 50.1 µM (inactive) in the assay on IGROV-1; 17.6 µM (inactive) in the assay with SN12C; 25.6 µM (inactive) in the assay on MCF7. Also, the GI50 was 18.9 µM (inactive) in the assay on UACC-62; 62.5 µM (inactive) with HOP-62; 26.2 µM (inactive) with SK-MEL-28; 18.3 µM (inactive) in the assay on PC-3; 23.9 µM (inactive) with SNB-75; 70 µM (inactive) with OVCAR-3. Further, the GI50 with MDA-MB-435 is 27 µM (inactive); with Hs-578T, 47.5 µM (inactive); in the assay on COLO 205, 37.3 µM (inactive); in the assay with DU-145, 50.4 µM (inactive); in the assay on RXF 393 it was 23.3 µM (inactive); with MOLT-4, 25.1 µM (inactive). Moreover, in the assay with K562, the GI50 is 22.7 µM (inactive).
For the molecule `CC(=O)C(I(OS(=O)(=O)c1ccc(C)cc1)c1ccccc1)=P(c1ccccc1)(c1ccccc1)c1ccccc1`, the GI50 was > 100 µM (inactive) in the assay with NCI/ADR-RES; 23.7 µM (inactive) in the assay with SF-268; 11.8 µM (inactive) in the assay with NCI-H522; 35.6 µM (inactive) in the assay on IGROV-1; 15.9 µM (inactive) in the assay with SN12C; 35.8 µM (inactive) with MCF7. Also, the GI50 in the assay on UACC-62 was 1.06 µM (active); with HOP-62, 23.3 µM (inactive); in the assay with SK-MEL-28 it was 18 µM (inactive); with SK-OV-3, 43.6 µM (inactive); in the assay on PC-3 it was 26.5 µM (inactive); in the assay on OVCAR-3 it was 20.2 µM (inactive). Besides, the GI50 in the assay on MDA-MB-435 is 15.8 µM (inactive); in the assay on Hs-578T it was 23 µM (inactive); in the assay on COLO 205 it was 17.1 µM (inactive); in the assay on DU-145, 18.8 µM (inactive); in the assay on RXF 393, 42.1 µM (inactive); in the assay with MOLT-4, 26.4 µM (inactive). Besides, the GI50 in the assay with K562 was 30.6 µM (inactive).
Turning to `CCOC(=O)c1cc(-c2ccn(C(C)=O)c2)c(-c2cc(C)co2)[nH]1`, the GI50 in the assay on NCI/ADR-RES, in the assay on SF-268, in the assay with NCI-H522, with IGROV-1, in the assay on SN12C and in the assay with MCF7 was > 100 µM (inactive) each time. The GI50 with UACC-62, with HOP-62, in the assay on SK-MEL-28, in the assay on PC-3, in the assay with SNB-75 and in the assay with OVCAR-3 was > 100 µM (inactive) throughout. Besides, the GI50 in the assay with MDA-MB-435, with Hs-578T, in the assay on COLO 205, in the assay with DU-145, in the assay on RXF 393 and in the assay with MOLT-4 was > 100 µM (inactive) each time. The GI50 in the assay on K562 was > 100 µM (inactive).
